Substitutions are numbered along the chain they refer to.
Tests used:
[1] = test system: T1, Kinesin-like protein KIF11 (Homo sapiens), P52732 [D130V,A133D]; test: Inhibition of microtubule-stimulated ATPase activity of human Eg5 D130V/A133D mutant expressed in Escherichia coli BL21 by pyruvate kinase/lactate dehydrogenase-linked assay relative to control
T1 sequence (whole entry): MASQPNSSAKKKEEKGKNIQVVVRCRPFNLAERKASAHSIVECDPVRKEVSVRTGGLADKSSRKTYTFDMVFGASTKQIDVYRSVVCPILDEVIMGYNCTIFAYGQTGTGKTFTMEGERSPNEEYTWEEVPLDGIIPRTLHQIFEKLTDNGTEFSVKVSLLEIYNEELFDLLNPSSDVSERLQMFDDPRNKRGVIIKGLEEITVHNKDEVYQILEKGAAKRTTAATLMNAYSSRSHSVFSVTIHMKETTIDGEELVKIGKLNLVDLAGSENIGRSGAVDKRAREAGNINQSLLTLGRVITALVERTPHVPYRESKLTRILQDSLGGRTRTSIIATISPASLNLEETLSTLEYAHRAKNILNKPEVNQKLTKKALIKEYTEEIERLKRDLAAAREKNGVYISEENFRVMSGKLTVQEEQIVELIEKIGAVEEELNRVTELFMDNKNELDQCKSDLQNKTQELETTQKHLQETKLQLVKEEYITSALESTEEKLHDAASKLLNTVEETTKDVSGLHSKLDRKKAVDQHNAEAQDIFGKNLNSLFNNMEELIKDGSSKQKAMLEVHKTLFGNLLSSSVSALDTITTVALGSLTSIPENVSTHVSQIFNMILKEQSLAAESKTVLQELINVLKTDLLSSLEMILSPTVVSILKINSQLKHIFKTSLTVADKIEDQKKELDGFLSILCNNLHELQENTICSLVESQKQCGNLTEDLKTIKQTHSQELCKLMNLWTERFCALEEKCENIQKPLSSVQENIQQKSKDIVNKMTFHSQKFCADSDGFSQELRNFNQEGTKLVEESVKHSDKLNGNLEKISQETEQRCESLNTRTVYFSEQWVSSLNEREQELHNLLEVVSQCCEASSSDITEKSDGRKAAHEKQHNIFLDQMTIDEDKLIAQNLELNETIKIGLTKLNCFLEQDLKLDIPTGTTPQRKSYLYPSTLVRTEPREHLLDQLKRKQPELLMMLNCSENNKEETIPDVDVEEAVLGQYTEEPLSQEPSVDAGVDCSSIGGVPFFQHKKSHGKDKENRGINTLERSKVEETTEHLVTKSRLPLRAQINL

[2] = test system: T2, Kinesin-like protein KIF11 (Homo sapiens), P52732 [A133D]; test: Inhibition of microtubule-stimulated ATPase activity of human Eg5 A133D mutant expressed in Escherichia coli BL21 by pyruvate kinase/lactate dehydrogenase-linked assay relative to control
T2 sequence (whole entry): T1 sequence (whole entry) with V130D

[3] = target: T3, Kinesin-like protein KIF11 (Homo sapiens) (UniProt P52732); test: Inhibition of microtubule-stimulated ATPase activity of N-terminal His-6-tagged human wild type Eg5 (1 to 368) expressed in Escherichia coli BL21 by pyruvate kinase/lactate dehydrogenase-linked assay relative to control
T3 sequence (whole entry): T1 sequence (whole entry) with V130D, D133A

[4] = test system: T4, Kinesin-like protein KIF11 (Homo sapiens), P52732 [D130V]; test: Inhibition of microtubule-stimulated ATPase activity of human Eg5 D130V mutant expressed in Escherichia coli BL21 by pyruvate kinase/lactate dehydrogenase-linked assay relative to control
T4 sequence (whole entry): T1 sequence (whole entry) with D133A

Cc1ccc(C(=O)N(CCCN)[C@@H](c2oc3cc(Cl)ccc3c(=O)c2Cc2ccccc2)C(C)C)cc1
ICmax [1]: 10%
ICmax [2]: 50%
ICmax [3]: 95%
ICmax [4]: 50%
